Read-outs that look alike come from different tables or passages of the source.
Assays:
[1] = system: carrageenan-induced paw edema; experiment: Carrageenan-induced rat paw edema; type: in vivo; settings: for paw volume versus vehicle treated rats (FIG. 2A): P<0.05, four rats in each group; for anti-inflammatory effect on paw swelling compared with parent NSAID: equimolar oral doses (Example 12)
Procedure: Carrageenan (1%, 100 μL, suspended in sterile saline solution, type IV lamda; Sigma-Aldrich) was subcutaneously injected into the plantar surface of the right hind paw in rat following the protocol described by Winter et al., Proceedings of the Society for Experimental Biology and Medicine 1962, 111:544-547. Paw volume was measured using a water displacement plethysmometer (model 520; IITC/Life Sciences Instruments, Woodland Hills, Calif.) before carrageenan injection and thereafter at 1-h intervals for 6 h. The paw volume measured just before carrageenan injection was used as the control volume. Data are expressed as the change in paw volume (milliliters) at each time point.
Carrageenan, type IV lambda (1%, 100 μL suspended in sterile saline solution), from Sigma Chemicals (St. Louis, Mo.) was subcutaneously injected into the plantar surface of the right hind paw in rat following the protocol described by Winter et al., Proceedings of the Society for Experimental Biology and Medicine 1962, 111:544-547. Paw volume was measured using a water displacement plethysmometer (Model 520, IITC/Life Sciences Instruments, Woodland Hills, Calif.) before carrageenan injection and thereafter at 1 hour intervals for 5 hours. The paw volume measured just prior to carrageenan injection was used as the control volume. Data are expressed as the change in paw volume (mL) at each time point.

[2] = system: PGE2; experiment: PGE2 in rat paw exudates; type: in vivo; settings: for PGE2 levels in the paw exudate versus vehicle (FIG. 2B): P<0.01, four rats in each group
Procedure: Rats were euthanized by asphyxiation in a CO2 chamber. […] The absorbance at 412 nm was measured after 1 h incubation at room temperature. […] Proteins were determined by Biorad assay.
Proteins were determined by Biorad assay.

[3] = system: TNF-α; experiment: Plasma TNF-α enzyme immunoassay; type: in vivo, rat; settings: for plasma TNF-α (FIG. 3): P<0.01 vs vehicle, P<0.01 vs ASA; for plasma TNFα concentration: rats, equimolar oral doses: ASA 180 (1 mmol/kg), NOSH-ASA 477, naproxen 80, NOSH-naproxen 188, sulindac 200, NOSH-sulindac 467 mg/kg, control 11±0.3
Procedure: Fresh samples of blood from the animals were taken by cardiac puncture into heparin-containing vials. The determination of plasma TNF-α was carried out by an enzyme immunoassay kit from R&D systems (Minneapolis, Minn.). Briefly, each sample (50 μL) was incubated with antibodies specific for rat TNF-α and washed three times with assay buffer. An enzyme-linked polyclonal antibody specific for rat TNF-α conjugated to horseradish peroxidase was then added to the wells. Following washing of unbound antibody-enzyme reagent, a substrate solution (containing tetramethylbenzidine, TMB, plus hydrogen peroxide) was added to the wells. The enzyme reaction yielded a blue product (oxidized TMB) that turned yellow when the stop solution (dilute hydrochloride acid) was added. The intensity of the color was determined by measuring the OD of the yellow color in a standard ELISA plate reader at 450 nm. Sensitivity of this TNF-α assay was determined by adding two standard deviations to the mean optical density value of 20× zero standard replicates and calculating the corresponding concentration. The kit contains all reagents and standards needed for the TNF-α sensitivity assay. The results are expressed as pg/mL.
This was done by an enzyme immunoassay kit from R&D systems (Minneapolis, Minn.) following the protocol described by the manufacturer. Briefly, fresh blood (50 μL) was incubated with antibodies specific for rat TNF-α and washed three times with assay buffer. An enzyme-linked polyclonal antibody specific for rat TNF-α conjugated to horseradish peroxidase was then added to the wells. Following washing of unbound antibody-enzyme reagent, a substrate solution (containing tetramethylbenzidine, TMB, plus hydrogen peroxide) was added to the wells. The enzyme reaction yielded a blue product (oxidized TMB) that turned yellow when the stop solution (dilute hydrochloride acid) was added. The intensity of this was measured at 450 nm. Sensitivity of this TNF-α assay was determined by adding two standard deviations to the mean optical density value of 20× zero standard replicates and calculating the corresponding concentration.

[4] = system: HT-29 human colon cancer cells; experiment: MTT cell growth inhibition, HT-29; type: cell-based; settings: HT-29 cells; for IC50: Homo sapiens
[5] = system: HT-29 colon cancer cells; experiment: Apoptosis, Annexin V staining and flow cytometry; type: cell-based, human
Procedure: Growth inhibition was measured using a colorimetric MTT assay kit (Roche, Indianapolis, Ind.). Proliferation (PCNA) was assessed using an ELISA kit from Calbiochem, (La Jolla, Calif.). Cell cycle phase distributions and apoptosis of control and treated cells were determined as previously described. All methods are described in Chattopadhyay et al., Biochemical Pharmacology, 2012, 83(6), 715-722.

[6] = system: gastric mucosa; experiment: Gastric damage, ulcer index; type: in vivo, rat; settings: rats, oral gavage, equimolar doses: ASA 180, NOSH-ASA 477, naproxen 80, NOSH-naproxen 188, sulindac 200, NOSH-sulindac 467 mg/kg; 6 h post-administration; vehicle UI=0
Procedure: The institutional animal care and research committees approved all experimental procedures described herein. Male Wistar rats (4 per group) weighing 180-200 g were obtained from Charles River Laboratories International (Wilmington, Mass.). The rats were fed standard laboratory chow and water. Rats were fasted for 48 h with free access to drinking water. […] Stomachs were then rapidly removed, cut along the greatest curvature, and rinsed with ice-cold distilled water. […] Tissues from stomachs were excised and processed for measurement of Prostaglandin E2 (PGE2), malondialdehyde (MDA) and Superoxide dismutase (SOD) activity.

[7] = system: LPS-induced fever; experiment: Anti-pyretic activity, LPS-induced fever; type: in vivo, rat; settings: 2-4 hours after LPS injection
Procedure: To induce fever, LPS (50 μg/kg, Sigma, St. Louis, Mo., USA) was administered intraperitoneally to the animals an hour before the administration of test drugs as described previously (Pinto L et al., Pharm Pharmacol Communication 1988: 4:502-505). Rectal temperature was measured by inserting a lubricated thermistor probe (external diameter: 3 mm) 2.8 cm into the rectum of the animal. […] Rectal temperatures were taken every hour for 5 hours.

SMILES	paw volume versus vehicle treated rats (FIG. 2A) [1]	PGE2 levels in the paw exudate versus vehicle (FIG. 2B) [2]	plasma TNF-α (FIG. 3) [3]	plasma TNFα concentration [3] [pg/mL]	IC50 ([4]; 48 h, read-out: IC50, 48 h) [µM]	IC50 ([4]; 72 h, read-out: IC50, 72 h) [µM]	gastric damage score, ulcer index (UI) [6]	reduction of LPS-induced fever compared with parent NSAID [7]	anti-inflammatory effect on paw swelling compared with parent NSAID [1]	other results
CC(=O)Oc1ccccc1C(=O)O [ASA, aspirin, reference compound]	significant reduction in paw volume at all time points	significant reduction in PGE2 levels	significant rise	190 ± 5	2500	2000				change in paw volume ΔV ([1]; ASA 0.56 mmol/kg, after 6 hours): ~0.35 mL; change in paw volume ΔV ([1]; ASA 0.56 mmol/kg, at 1 hour): 0.4 mL; change in paw volume ΔV ([1]; ASA 0.56 mmol/kg, over the next 2 hours (after 1 h)): ~0.35 mL; PGE2 levels in paw exudate ([2]; aspirin 0.21 mmol/kg, control 82±2 pg/mg): 12±3 pg/mg protein; increase of plasma TNF-α concentration over control ([3]; ASA 0.56 mmol/kg): about 20 fold; plasma TNF-α concentration ([3]; ASA 0.56 mmol/kg, control 10±1): 200 ± 10 pg/mL; increase of plasma TNFα concentration over control ([3]; ASA 1 mmol/kg): about 20 fold
O=C(CCCO[N+](=O)[O-])Oc1ccccc1C(=O)Oc1ccc(-c2cc(=S)ss2)cc1 [NOSH-1, 4-(3-thioxo-3H-1,2-dithiol-5-yl)phenyl 2-((4-(nitrooxy)butanoyl)oxy)benzoate]	significant reduction in paw volume at all time points	significant reduction in PGE2 levels	significantly less	75 ± 1	0.0197 ± 0.0033	0.0077 ± 0.0022	2	appeared to be better in reducing LPS-induced fever		change in paw volume ΔV ([1]; high dose NOSH-1 0.52 mmol/kg, after 1-2 hours): 0.45 mL; change in paw volume ΔV ([1]; high dose NOSH-1 0.52 mmol/kg, over the next 4 hours (to 6 h)): 0.35 mL; change in paw volume ΔV ([1]; low dose NOSH-1 0.21 mmol/kg, after 1 hour): 0.5 mL; change in paw volume ΔV ([1]; low dose NOSH-1 0.21 mmol/kg, by 3 hours): 0.6 mL; change in paw volume ΔV ([1]; low dose NOSH-1 0.21 mmol/kg, over the next 3 hours (to 6 h)): ~0.4 mL; PGE2 levels in paw exudate ([2]; NOSH-1 0.21 mmol/kg): 42 ± 3 pg/mg; PGE2 levels in paw exudate ([2]; NOSH-1 0.52 mmol/kg): 21 ± 4 pg/mg; plasma TNF-α concentration ([3]; NOSH-1 0.21 mmol/kg): 55 ± 2 pg/mL; plasma TNF-α concentration ([3]; NOSH-1 0.52 mmol/kg): 40 ± 3 pg/mL; cells in early apoptotic phase ([5]; 0.5×IC50, 24 hours): 24.7±1.4%; cells in early apoptotic phase ([5]; 1×IC50, 24 hours): 32.8±2.1%; cells in early apoptotic phase ([5]; 2×IC50, 24 hours): 55.9±3.3%; Potency enhancement (ratio of IC50 values ASA/NOSH-1), 48 h ([4]; 48 h): ~125,000 fold; Potency enhancement (ratio of IC50 values ASA/NOSH-1), 72 h ([4]; 72 h): ~250,000 fold
CC(C(=O)Oc1ccc(-c2cc(=S)ss2)cc1)c1ccc2cc(OC(=O)CCCO[N+](=O)[O-])ccc2c1 (centres unmarked) [NOSH-7, 6-(1-oxo-1-(4-(3-thioxo-3H-1,2-dithiol-5-yl)phenoxy)propan-2-yl)naphthalen-2-yl 4-(nitrooxy)butanoate]				48 ± 2			2	appeared to be better in reducing LPS-induced fever	even lower inflammatory response compared to naproxen	
CC1=C(CC(=O)Oc2ccc(OC(=O)CCCO[N+](=O)[O-])c(C(=O)Oc3ccc(-c4cc(=S)ss4)cc3)c2)c2cc(F)ccc2/C1=C/c1ccc([S+](C)[O-])cc1 (centres unmarked) [NOSH-8, (E)-4-(3-thioxo-3H-1,2-dithiol-5-yl)phenyl 5-(2-(5-fluoro-2-methyl-1-(4-(methylsulfinyl)benzylidene)-1H-inden-3-yl)acetoxy)-2-((4-(nitrooxy)butanoyl)oxy)benzoate]				50 ± 3			10		the same anti-inflammatory response as sulindac	
CC1=C(CC(=O)O)c2cc(F)ccc2/C1=C\c1ccc([S+](C)[O-])cc1 (centres unmarked) [sulindac, reference compound]				230 ± 5			130			

— patent US10450260B2, “NO- and H2S-releasing compounds” (RESEARCH FOUNDATION OF THE CITY UNIVERSITY OF NEW YORK, priority 2011, dated 2019)
